# PubChem BioAssay (NCI)
#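 A five-concentration, 48-hour dose response in 96-well plates underlies each endpoint, interpolated linearly between surrounding concentrations. The concentration for full growth arrest is given as TGI.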
# How the values were obtained:
# Assay in all cases: NCI anticancer screen, dose series, 48 h
# [1] = system: SF-295 CNS
# [2] = system: RXF 393 renal
# [3] = system: OVCAR-4 ovarian
# [4] = system: HL-60(TB) leukemia
# [5] = system: UO-31 renal
# [6] = system: IGROV1 ovarian
# [7] = system: SNB-19 CNS
# [8] = system: PC-3 prostate
# [9] = system: SW-620 colon
# [10] = system: MALME-3M melanoma
# [11] = system: LOX IMVI melanoma
# [12] = system: UACC-62 melanoma
# [13] = system: NCI-H522 lung
# [14] = system: EKVX NSCLC
# [15] = system: SK-MEL-2 melanoma
# [16] = system: UACC-257 melanoma
# [17] = system: DU-145 prostate
# [18] = system: HCT-116 colon
# [19] = system: NCI-H23 lung
# [20] = system: HS 578T breast
# [21] = system: OVCAR-5 ovarian
# [22] = system: HOP-92 NSCLC
# [23] = system: OVCAR-3 ovarian
# [24] = system: SN12C renal
# [25] = system: HOP-62 NSCLC
# [26] = system: 786-0 renal
# [27] = system: MOLT-4 leukemia
# [28] = system: A498 renal
# [29] = system: NCI-H460 lung
# [30] = system: SF-539 CNS
# [31] = system: HT29 colon
# [32] = system: HCC-2998 colon
# [33] = system: SNB-75 CNS
# [34] = system: SR leukemia
# [35] = system: COLO 205 colon
# [36] = system: SK-OV-3 ovarian
# [37] = system: MDA-MB-231 breast
# [38] = system: MDA-MB-435
# [39] = system: TK-10 renal
# [40] = system: CCRF-CEM leukemia
# [41] = system: NCI-H226 lung
# [42] = system: MCF7 breast
# [43] = system: A549 NSCLC
# [44] = system: NCI/ADR-RES ovarian
# [45] = system: SK-MEL-5 melanoma
# [46] = system: OVCAR-8 ovarian
# [47] = system: SK-MEL-28 melanoma
# [48] = system: K-562 leukemia
# [49] = system: RPMI-8226 leukemia
# [50] = system: HCT-15 colon
# [51] = system: BT-549 breast
# [52] = system: SF-268 CNS
# [53] = system: ACHN renal
# [54] = system: KM12 colon
# [55] = system: M14 melanoma
# [56] = system: CAKI-1 renal
# [57] = system: T-47D breast
# [58] = system: U251 CNS
# [59] = system: MDA-N
smiles,measurement,setting,value
c1ccc(-c2nnc(SCc3c[nH]c4ccccc34)n2-c2ccccc2)cc1,TGI,[1],> 100 µM
same,TGI,[2],52.5 µM
same,TGI,[3],> 100 µM
same,TGI,[4],> 100 µM
same,TGI,[5],> 100 µM
same,TGI,[6],> 100 µM
same,TGI,[7],> 100 µM
same,TGI,[8],93.9 µM
same,TGI,[9],> 100 µM
same,TGI,[10],> 100 µM
same,TGI,[11],> 100 µM
same,TGI,[12],66.7 µM
same,TGI,[13],> 100 µM
same,TGI,[14],> 100 µM
same,TGI,[15],> 100 µM
same,TGI,[16],> 100 µM
same,TGI,[17],> 100 µM
same,TGI,[18],> 100 µM
same,TGI,[19],> 100 µM
same,TGI,[20],93.5 µM
same,TGI,[21],> 100 µM
same,TGI,[22],79.3 µM
same,TGI,[23],> 100 µM
same,TGI,[24],> 100 µM
same,TGI,[25],> 100 µM
same,TGI,[26],> 100 µM
same,TGI,[27],> 100 µM
same,TGI,[28],56 µM
same,TGI,[29],> 100 µM
same,TGI,[30],70.3 µM
same,TGI,[31],> 100 µM
same,TGI,[32],> 100 µM
same,TGI,[33],57.6 µM
same,TGI,[34],> 100 µM
same,TGI,[35],> 100 µM
same,TGI,[36],> 100 µM
same,TGI,[37],> 100 µM
same,TGI,[38],> 100 µM
same,TGI,[39],64.1 µM
same,TGI,[40],> 100 µM
same,TGI,[41],> 100 µM
same,TGI,[42],> 100 µM
same,TGI,[43],> 100 µM
same,TGI,[44],> 100 µM
same,TGI,[45],61 µM
same,TGI,[46],> 100 µM
same,TGI,[47],> 100 µM
same,TGI,[48],> 100 µM
same,TGI,[49],> 100 µM
same,TGI,[50],> 100 µM
same,TGI,[51],98.7 µM
same,TGI,[52],> 100 µM
same,TGI,[53],> 100 µM
same,TGI,[54],> 100 µM
same,TGI,[55],> 100 µM
same,TGI,[56],> 100 µM
same,TGI,[57],> 100 µM
same,TGI,[58],> 100 µM
same,TGI,[59],> 100 µM
N#CC1(Nc2ccc(-c3ccc(NC4(C#N)CCCC4)cc3)cc2)CCCC1,TGI,[1],> 100 µM
same,TGI,[2],> 100 µM
same,TGI,[3],> 100 µM
same,TGI,[4],> 100 µM
same,TGI,[5],> 100 µM
same,TGI,[6],> 100 µM
same,TGI,[7],> 100 µM
same,TGI,[8],> 100 µM
same,TGI,[9],> 100 µM
same,TGI,[10],> 100 µM
same,TGI,[11],> 100 µM
same,TGI,[12],> 100 µM
same,TGI,[13],> 100 µM
same,TGI,[14],> 100 µM
same,TGI,[15],> 100 µM
same,TGI,[16],> 100 µM
same,TGI,[17],> 100 µM
same,TGI,[18],> 100 µM
same,TGI,[19],> 100 µM
same,TGI,[20],> 100 µM
same,TGI,[21],> 100 µM
same,TGI,[22],> 100 µM
same,TGI,[23],> 100 µM
same,TGI,[24],> 100 µM
same,TGI,[25],> 100 µM
same,TGI,[26],> 100 µM
same,TGI,[27],> 100 µM
same,TGI,[28],> 100 µM
same,TGI,[29],> 100 µM
same,TGI,[30],78.2 µM
same,TGI,[31],> 100 µM
same,TGI,[32],> 100 µM
same,TGI,[33],> 100 µM
same,TGI,[34],> 100 µM
same,TGI,[35],> 100 µM
same,TGI,[36],> 100 µM
same,TGI,[37],> 100 µM
same,TGI,[38],> 100 µM
same,TGI,[39],> 100 µM
same,TGI,[40],61.2 µM
same,TGI,[41],> 100 µM
same,TGI,[42],> 100 µM
same,TGI,[43],> 100 µM
same,TGI,[44],> 100 µM
same,TGI,[45],> 100 µM
same,TGI,[46],> 100 µM
same,TGI,[47],> 100 µM
same,TGI,[48],> 100 µM
same,TGI,[49],> 100 µM
same,TGI,[50],> 100 µM
same,TGI,[51],> 100 µM
same,TGI,[52],> 100 µM
same,TGI,[53],> 100 µM
same,TGI,[54],> 100 µM
same,TGI,[55],> 100 µM
same,TGI,[56],> 100 µM
same,TGI,[57],> 100 µM
same,TGI,[58],> 100 µM
same,TGI,[59],> 100 µM
NS(=O)(=O)c1ccc(NCc2cnc3ccccc3n2)cc1,TGI,[1],> 100 µM
same,TGI,[2],> 100 µM
same,TGI,[3],> 100 µM
same,TGI,[4],> 100 µM
same,TGI,[5],> 100 µM
same,TGI,[6],> 100 µM
same,TGI,[7],> 100 µM
same,TGI,[8],> 100 µM
same,TGI,[9],> 100 µM
same,TGI,[10],> 100 µM
same,TGI,[12],> 100 µM
same,TGI,[13],> 100 µM
same,TGI,[14],> 100 µM
same,TGI,[15],> 100 µM
same,TGI,[16],> 100 µM
same,TGI,[17],> 100 µM
same,TGI,[18],> 100 µM
same,TGI,[19],> 100 µM
same,TGI,[20],> 100 µM
same,TGI,[21],> 100 µM
same,TGI,[22],> 100 µM
same,TGI,[23],> 100 µM
same,TGI,[24],> 100 µM
same,TGI,[25],> 100 µM
same,TGI,[26],> 100 µM
same,TGI,[27],> 100 µM
same,TGI,[28],> 100 µM
same,TGI,[29],> 100 µM
same,TGI,[30],> 100 µM
same,TGI,[31],> 100 µM
same,TGI,[32],> 100 µM
same,TGI,[33],> 100 µM
same,TGI,[34],> 100 µM
same,TGI,[35],> 100 µM
same,TGI,[36],> 100 µM
same,TGI,[37],> 100 µM
same,TGI,[38],> 100 µM
same,TGI,[39],> 100 µM
same,TGI,[40],> 100 µM
same,TGI,[41],> 100 µM
same,TGI,[42],> 100 µM
same,TGI,[43],> 100 µM
same,TGI,[44],> 100 µM
same,TGI,[45],> 100 µM
same,TGI,[46],> 100 µM
same,TGI,[47],> 100 µM
same,TGI,[48],> 100 µM
same,TGI,[49],> 100 µM
same,TGI,[50],> 100 µM
same,TGI,[51],> 100 µM
same,TGI,[52],> 100 µM
same,TGI,[53],> 100 µM
same,TGI,[54],> 100 µM
same,TGI,[55],> 100 µM
same,TGI,[56],> 100 µM
same,TGI,[57],> 100 µM
same,TGI,[58],> 100 µM
same,TGI,[59],> 100 µM
Cc1c(-c2ccccc2)c(C#N)c2nnn(C3CCCCC3)c(=O)n12,TGI,[1],> 100 µM
same,TGI,[2],71.7 µM
same,TGI,[3],> 100 µM
same,TGI,[4],> 100 µM
same,TGI,[5],6.85 µM
same,TGI,[6],> 100 µM
same,TGI,[7],> 100 µM
same,TGI,[8],> 100 µM
same,TGI,[9],> 100 µM
same,TGI,[10],> 100 µM
same,TGI,[11],> 100 µM
same,TGI,[12],> 100 µM
same,TGI,[13],> 100 µM
same,TGI,[14],> 100 µM
same,TGI,[15],> 100 µM
same,TGI,[16],> 100 µM
same,TGI,[17],> 100 µM
same,TGI,[18],> 100 µM
same,TGI,[19],> 100 µM
same,TGI,[20],> 100 µM
same,TGI,[21],> 100 µM
same,TGI,[22],80.8 µM
same,TGI,[23],> 100 µM
same,TGI,[24],> 100 µM
same,TGI,[25],46.6 µM
same,TGI,[26],> 100 µM
same,TGI,[28],> 100 µM
same,TGI,[29],> 100 µM
same,TGI,[30],> 100 µM
same,TGI,[31],> 100 µM
same,TGI,[32],> 100 µM
same,TGI,[33],68.8 µM
same,TGI,[34],> 100 µM
same,TGI,[35],> 100 µM
same,TGI,[36],> 100 µM
same,TGI,[37],66 µM
same,TGI,[38],> 100 µM
same,TGI,[39],> 100 µM
same,TGI,[40],> 100 µM
same,TGI,[41],> 100 µM
same,TGI,[42],> 100 µM
same,TGI,[43],> 100 µM
same,TGI,[44],> 100 µM
same,TGI,[45],> 100 µM
same,TGI,[46],> 100 µM
same,TGI,[47],> 100 µM
same,TGI,[48],> 100 µM
same,TGI,[49],> 100 µM
same,TGI,[50],> 100 µM
same,TGI,[51],> 100 µM
same,TGI,[52],> 100 µM
same,TGI,[53],> 100 µM
same,TGI,[54],> 100 µM
same,TGI,[55],> 100 µM
same,TGI,[56],47.1 µM
same,TGI,[57],> 100 µM
same,TGI,[58],> 100 µM
same,TGI,[59],> 100 µM
